System: PKB
Assay: PKB activation in dendritic cells (phospho-PKB Western blot)
Format: cell-based, mouse
Experimental: FIG. 1. TRANCE activates p44/42 ERK, NF-κB and PKB in osteoclasts and dendritic cells. (A) Mature bone marrow-derived osteoclasts were stimulated for the indicated times with recombinant hCD8-TRANCE (TRANCE; 1 μg/ml). Levels of phosphorylated forms of p44/p42 ERK (p44 ERK^P and p42 ERK^P), IκBα (IκB-α^P) and PKB (PKB^P) in whole cell extracts were determined using phospho-peptide-specific antibodies as indicated in the figure. The membranes were stripped and incubated with antibodies against the p44/p42 ERK, IκB-α, and PKB as indicated to confirm that similar amounts of whole cell extracts were analyzed. Note the decrease of IκB-α after 10 min of treatment due to its degradation. (B) as in (A) except the use of mature bone marrow-derived dendritic cells instead of osteoclasts.
FIG. 2. TRANCE-induced PKB activation in osteoclasts and dendritic cells is blocked by inhibitors of PI3-kinase, tyrosine kinases and Src family kinases. (A) Osteoclasts were serum starved and then pretreated for 90 min with LY294002 (10 μM), Herbimycin A (Herb. A; 10 μM), and PP1 (10 μM) inhibitors which are specific for PI3-kinase, PTKs, and Src-family kinases, respectively, were stimulated for indicated times with TRANCE (1 μg/ml). Levels of phosphorylated p44/p42 ERK, PKB, and IκB-α were determined as described in FIG. 1. Cells pretreated with vehicle (DMSO) were used as a negative control. (B) as in (A) except the use of mature bone marrow-derived dendritic cells.
FIG. 6. Cytokine receptors that engage TRAF6 activate PKB through Src-family kinases. (A) Dendritic cells were treated with TNF (10 ng/ml), TRANCE (5 μg/ml), LPS (50 μg/ml), or IL-1α (20 ng/ml) for the indicated times (min). The activation of PKB was determined in whole cell extracts using a phospho-PKB-specific antibody as described in FIG. 1. (B) Dendritic cells were pretreated with vehicle (DMSO) or the Src-family kinase inhibitor, PP1 (10 μM) for 90 minutes followed by a 15 minute treatment with TRANCE (5 μg/ml), LPS (50 μg/ml), or IL-1α (20 ng/ml) or no treatment at all (−). The activation of PKB was determined as described in FIG. 1.
Primary cells and cell lines. Osteoclasts and macrophages were generated from bone marrow precursors as described (Wani, et al., Endocrinology, 140:[…], 1999). In brief, bone marrow cells from tibiae and femur of 4-6 week old mice (C57BL/6, Jackson Laboratories) were cultured overnight in media (α-MEM, 10% FCS) in the presence of CSF-1 (5 ng/ml). After 24 hours, non-adherent cells were harvested, washed, and further cultured in media with CSF-1 (50 ng/ml) plus TRANCE (10 ng/ml) to develop osteoclasts, or with CSF-1 alone to develop macrophages. Using these conditions, after 4 days of culture, greater than 95 percent of the adherent cells were osteoclasts or macrophages. For experiments described in this study, only adherent cells were used after extensive washing. Mature dendritic cells were generated from bone marrow precursors of 4-6 week old female C57BL/6 mice (C57BL/6, Jackson Laboratories) cultured in media (RPMI1640, 5% FBS) and GM-CSF (1:30 cultured supernatant from the J558 cell line, a gift from Dr. R. M. Steinman, The Rockefeller University) for 8 days as previously described (Inaba, et al., J. Exp. Med., 176:1693-1702, 1992). To generate osteoclasts and dendritic cells from c-Src deficient mice, spleen cells, which contain hematopoietic precursors due to extramedullary hematopoeisis, were substituted for bone marrow cells as previously described (Schwartzberg, et al., Genes Dev., 11:2835-2844, 1997). Mature spleen-derived dendritic cells were isolated from spleens treated with collagenase (40 U/ml; Boehinger Mannheim) and subjected to a Nycodenz centrifugation gradient (14.5%; Nycomed) to obtain low density cells. After allowing them adhere for 2 hours to a tissue culture dish, contaminating floater cells were washed away and mature dendritic cells were obtained by overnight culture.
Cell stimulation, cell transfection and in vitro assays. […]

## TNF-related activation-induced cytokine [TRANCE]
TNF 10 ng/ml, TRANCE 5 μg/ml, LPS 50 μg/ml, IL-1α 20 ng/ml, CD40L data not shown
  PKB activation in dendritic cells stimulated with cytokine: activated
TRANCE-treated, compared with wild-type
  PKB activation in dendritic cells from c-Src−/− mice: not significantly reduced
Dendritic cells, TRANCE stimulation
  time for which PKB activity was sustained: greater than 3 hours
Dendritic cells, after 5 minutes, TRANCE 1 μg/ml
  phosphorylated form of PKB upon TRANCE stimulation: increase

Reference: patent publication US6492124B1, “Trance activated signal transduction pathways in osteoclasts” (The Rockefeller University, priority 1999, dated 2002)
